The text below walks through data of patent US8569045B2, “Water toxicity detecting apparatus and method using sulfur particles” (University-Industry Cooperation Foundation, Kangwon …, priority 2007, dated 2013).

The subject of this data set is sulfur-oxidizing microbes. In words: Water toxicity detection with sulfur particles: electrical conductivity difference between inflow and outflow water, continuous reaction container. It is filed as cell-based, Thiobacillus. To be noted: 30 ppm test substance in the sample; EBCT 17 minute; 30° C.; ratio 0~1, about 1 = no toxicity, about 0 = high toxicity; 0.3 corresponds to issuing alarm. The protocol:
When the microbes attached around the sulfur particles are grown in the reaction container 130 of which conditions such as temperature is constant, the sulfur is oxidized at a constant speed. The following formula expresses a reaction of generation of sulfate ions and hydrogen ions in the processes. S+H2O+1.5O2−>SO4^2−+2H^+ΔG°′=−587.1 kJ/reaction
Referring to the above formula, the sulfur particles react with the microbes, the inflow water, and the oxygen in the reaction container 130 to generate a predetermined amount of sulfate ions. In case of non-toxic outflow water, the amount of sulfate ions thereof is increased by a predetermined amount in comparison with the inflow water. Since a degree of alkali in a river water is generally low, pH of the outflow water is decreased in comparison with the inflow water.
However, in case of the inflow water containing toxic substances, a degree of activation of the microbes attached around the sulfur particles is lowered, so that the sulfur particles can not be oxidized. […]
The reaction container is filled with a 30 mL of sulfur particles. […] While an empty bed contact time (EBCT) of the inflow water is changed among 7.1, 8.3, 10.0, 12.5, and 16.7 minutes, the pH and electrical conductivity of the inflow water and the outflow water are measured. The EBCT is calculated by dividing a volume (30 mL) of the sulfur particles with a flow rate. […]

As for hexavalent chrome, the ECDifference ratio was determined as 0.3.
